Reference: patent publication US20240270786A1, “STEROID COMPOUNDS” (Epirium Bio Inc., priority 2022, published 2024)
Several values for one entry are separate records, joined by “and”; a condition that tells them apart may be missing. Equal entries are not always repeated.

How the values were obtained:
PGC-1α = assay: In vivo PGC-1α expression in liver of LPS-treated mice (ELISA); design: species or system C57BL/6 mice; conditions: LPS 3 mg/Kg IP, test compound 10 mg/kg PO BID, liver, 24 hours post LPS; for PGC-1α levels: C57BL/6 mice; for PGC-1α level (%): Control = 100
Description: C57BL/6 mice were procured from Vivo Bio Tech Ltd. Male mice were used for the study within an age range of 7 to 8 weeks. Body weight for these mice ranged from 20 g to 25 g. Animals were housed in a group of 6 in individually ventilated cages with temperature of 22±3° C., a relative humidity of 50 to 60%. The bottom of the cages was layered with sterilized corn cob. Animals were provided with gamma irradiated feed and autoclaved drinking water ad-libitum. The IVCs were maintained at an environment controlled (Centrally Air-Conditioned) room at a temperature of 22±3° C., a relative humidity of 50 to 60%, light intensity of 250-300 lux and a 12 hour light-dark cycle and noise intensity of <85 db.
Method of Preparation: LPS was dosed at 3 mg/kg in a dose volume of 10 ml/kg. For this, 0.3 mg/ml of LPS solution (Micronized suspension) was prepared. Butter paper was placed on analytical balance, tarred and LPS was placed on butter paper and its weight was noted down. LPS was transferred to 15 ml falcon tube. Then required amount of normal saline was added to it to make it 0.3 mg/ml. The solution was vortexed properly for 5 minutes and placed on ice. LPS solution was vortexed every time before aspiration and injection.
LPS was dosed at 3 mg/kg. Each test compound was dosed at 10 mg/kg, 2 hour and 15 min post LPS administration.
0.5% CMC was used as a vehicle with a dose volume of 10 ml/kg. An IP route was used for LPS, and a PO route was used for each test compound. Animals were sacrified 24 hours post LPS dosing, and plasma were collected. PGC-1α level was measured in liver samples, and other tissues were stored for future analysis. PGC-1α level was checked using ELISA kit—CUSABIO Mouse PPARGC1A ELISA kit.
Protocol: One day before start of the experiment C57BL/6 Mice (Male, 6-7-week-old) were randomized on the basis of their body weight and were divided into groups. All the cages were assigned the respective group name. Animals inside each cage were marked on the base of the tails with permanent marker to distinguish each animal. Mice were fasted overnight. Next day morning animals were dosed with test item. Group 1 (Control) and Group 2 (LPS) Animals were dosed with vehicle (0.5% CMC). Test items were prepared in 0.5% CMC by trituration in mortar and pestle and addition of CMC drop by drop. 2 hour post test item/vehicle dosing animals were administered with LPS through IP route at 3 mg/kg of body weight. Group 1 (Control) animals were administered with saline. 0.25 hour post LPS administration, animals were again dosed with test item/vehicle. Post dosing, animals were returned to their respective cages and kept until termination of the study. No feed was offered to any group. Animals were provided with water. 24 hour post LPS administration, blood was collected from each animal under influence of mild isoflurane anesthesia through retro-orbital technique. Animals were sacrificed by CO2 asphyxiation technique. Post-termination, animals were dissected and vital organs, liver, brain, skeleton muscle were collected in Eppendorf tubes and flash frozen in liquid nitrogen. Serum was collected from whole blood by centrifuging it at 4° C. at 10,000 RPM and for 10 minutes. (Blood was left for 2 hour for coagulation before centrifugation) After completion of the experiment, all collected samples were stored at −80° C. until analysis.
Assay Methods/Protocol: The mortar was chilled with liquid nitrogen and then the small tissue pieces were grinded in the presence of liquid nitrogen to a fine powder. Immediately after grinding, transferred small amount of tissue powder to a 1.5 ml micro centrifuge tube containing 1.0 ml lysis buffer (RIPA buffer+Protease inhibitor). The samples were then incubated on ice for 2 hours. The samples were vortexed every 15 minutes. The samples were then centrifuged at 13000×g for 15 minutes at 2-8° C. After centrifugation the supernatant was removed carefully and pellet was discarded. […]

[1] = tested on: PGC-1α expression in C2C12 cells; assay: In vitro PGC-1α expression in C2C12 cells (cell ELISA); type: cell-based; conditions: 0.01 nM, 5000 cells/well, OD @ 650 nm, DMSO control = 100
Description: Culture conditions: DMEM containing 25 mM glucose with 10% FBS supplementation; grown at 37° C. and 5% CO2.
Drugs: (+)-Epicatechin, AICAR (direct activator of AMPK).
Assay Conditions: C2C12 cells were cultured in DMEM supplemented in 10% FBS upto 80% confluence. The cells were further trypsinized and seeded into a 96 well plate at a density of 5000 cells/well (well volume—100 μL) (Day 0). Following attachment, the cells were allowed to reach 80-90% confluence in the plate (typically 48 hours post seeding) and further differentiated using DMEM+2% Horse Serum (200 μL/well). The media was changed every day or at least every alternate day for 5 days to allow myoblasts to differentiate into myotubes. On day 7 (post seeding), the cells were treated with standards and test compounds for PGC-1 α assay.
PGC-1α assay: For the detection of PGC-1a, the cells were incubated with 0.5 μg/ml primary antibody (Merck, WH0010891M3) in PBS-T containing 5% BSA at 4° C. overnight. The cells were then washed three times with PBS-T for 5 minutes and incubated with 1:1000 dilution secondary antibody (Anti-rabbit IgG, HRP-linked Antibody, Cell Signaling) in PBS-T with 1% BSA for 1 hour at RT. Cells were washed three times with PBS-T for 5 minutes The cells were incubated with 100 μl TMB substrate solution for 30 minutes and the reaction was stopped with 100 μl of 2N H2SO4. […] (For plate optical density calculations, a background correction was taken at 540 nm). The final PGC-1a activation % is average of activation of 6 replicates.

| Structure (SMILES) | PGC-1α levels (PGC-1α) | PGC-1α level (%) (PGC-1α) | % Activity (PGC-1α expression) [1] |
| --- | --- | --- | --- |
| CN1C(=O)CC[C@@]2(C)C1=CCC1C2[C@@H](O)C[C@@]2(C)C1CC[C@@H]2NC(=O)C1CC1 (stereo partly drawn) [Compound 26, N-((4aR,5S,6aS,7S)-5-hydroxy-1,4a,6a-trimethyl-2-oxo-2,3,4,4a,4b,5,6,6a,7,8,9,9a,9b,10-tetradecahydro-1H-indeno[5,4-f]quinolin-7-yl)cyclopropanecarboxamide] | 32298 pg/mL | 84% | 129% and 146% |
| CC(C)CCNC(=O)C1CCC2C3CC=C4N(C)C(=O)CC[C@]4(C)C3[C@@H](O)C[C@]12C (stereo partly drawn) [Compound 36, (4aR,5S,6aS)-5-hydroxy-N-isopentyl-1,4a,6a-trimethyl-2-oxo-2,3,4,4a,4b,5,6,6a,7,8,9,9a,9b,10-tetradecahydro-1H-indeno[5,4-f]quinoline-7-carboxamide] | 29341 pg/mL | 77% | 133% and 130% |
| CNC(=O)[C@H]1CCC2C3CC=C4N(C)C(=O)CC[C@]4(C)C3[C@@H](O)C[C@@]21C (stereo partly drawn) [Compound 40, (4aR,5S,6aS)-5-hydroxy-N,1,4a,6a-tetramethyl-2-oxo-2,3,4,4a,4b,5,6,6a,7,8,9,9a,9b,10-tetradecahydro-1H-indeno[5,4-f] quinoline-7-carboxamide] | 39014 pg/mL and 22668 pg/mL | 73% and 75% | 130% and 143% |
